Test results published in patent US8133902B2, “Ammosamides as anticancer agents” (The Regents of the University of California, priority 2007, dated 2012).
Like-named read-outs stand apart in the source and are kept apart here.

Tests used:
Format in all cases: cell-based
[1] = system: HeLa, HCT-116 and PC-3 cells; assay: live cell fluorescence microscopy, retention and localization; settings: pretreatment with 1 mL DMEM containing 10 μM
Protocol: HeLa cells (ATCC CCL-2) were cultured in phenol red-free Dulbecco's modification of Eagle's medium (DMEM) with 4.5 g/L glucose, […] and 5% heat inactivated fetal calf serum (FCS) in glass-bottom dishes. The cells were synchronized using a double thymidine block. Phenol red, a common additive in DMEM, was not used during the culturing or experimentation. Fluorescent images were collected on a Nikon TE 2000 using irradiation with a mercury vapor lamp (Nikon), filtration through a dichroic filter set (FF409, Semrock) with an excitation at 377±50 nm, dichroic with >98% reflection at 344-404 nm and >98% transmission at 415-570 nm, and emission filter at 447±60 nm, focusing with an Oil Immersion Epiplan 60× objective (Zeiss), and image collection with an SPOT RT-KE color CCD Camera (Diagnostic Instruments Inc.).
The results of the study of the activity are discussed below with the reference to FIG. 2. […]
Live cell fluorescence microscopy was then conducted to detail the intracellular localization of probe 4. […]
After 12 hours of incubation, the blue fluorescence from probe 4 was vesiculated (FIG. 2d). […] In particular, the overlap of red fluorescence from the red lysosome stain, LysoTracker Red DND-99, and the blue fluorescence from probe 4 provided strong evidence in support of this observation (FIG. 2f).

HCT-116 colon carcinoma = assay: in vitro cytotoxicity against HCT-116 colon carcinoma; settings: Homo sapiens
Source text: Compounds IA and IB are isolated in a pure form from a marine-derived actinomycete strain CNR698. More specifically, compound IA is obtained from the marine-derived actinomycete strain CNR698, and is the first natural product to contain a […] functionality. Compound IB is obtained from the marine-derived actinomycete strain CNR698. The actinomycete was obtained from a marine sediment. Briefly, the actinomycete, identified as a Streptomyces strain (CNR-698) was isolated from bottom sediments collected at a depth of 300 meters in the Bahamas Islands. […] Subsequent cytotoxicity-guided (HCT-116) fractionation by C18 flash chromatography and RP-HPLC led to the isolation of ammosamides A (compound IA) and B (compound IB) as dark blue and blue-purple, respectively (3 and 4 mg/L)
Accordingly, in some embodiments of the invention, compounds IA and IB are used for making pharmaceutical compositions comprising either or both of the two compounds and a pharmaceutically acceptable carrier. In addition, the pharmaceutical compositions can optionally comprise one or more additional anticancer agent(s).
Activity of probe 4 (FIG. 1) was compared to that of ammosamide A (1 on FIG. 1). […] Florescence microscopy was then used to examine the uptake of probe 4, which was concentrated within HeLa, HCT-116 and PC-3 cells within minutes (FIG. 2). The entire fluorescence from addition of 1 mL of 1 μM in […] appeared within the cell.

HCT-116 cells = assay: cell cycle effects by FACS analysis; settings: FIG. 3a-c, 50 μM
Protocol: The results of the study of the activity are discussed below with the reference to FIG. 3. […] Further, FIG. 3a illustrates cell cycle response for unsyncronized HCT-116 cells, FIG. 3b for HCT-116 cells synchronized and treated at G0 and incubated for 12 hours, and FIG. 3c, for HCT-116 cells synchronized and treated at S and incubated for 12 hours.
The effects of probe 4 on cell cycle were evaluated using FACS analysis.

[2] = HCT-116, read-out: cytotoxicity IC50 values
[3] = HCT-116, read-out: in vitro cytotoxicity IC50

Row | Compound | effect of pretreatment on uptake of probe 4 [1] | IC50 (HCT-116 colon carcinoma; [2]) [nM] | IC50 (HCT-116 colon carcinoma; [3]) [nM] | cell cycle data relative to probe 4 (HCT-116 cells)
1 | CN1C(=S)c2cc(C(N)=O)nc3c(N)c(Cl)c(N)c1c23 [Compound IA, ammosamide A] | blocked the uptake of probe 4 | < 1000 | 320 | Comparable cell cycles data
2 | CN1C(=O)c2cc(C(N)=O)nc3c(N)c(Cl)c(N)c1c23 [Compound IB, ammosamide B] | – | < 1000 | 320 | –
